Where two headings read alike, the source gives them in different places.
B1: EC340: endolysin of E. coli bacteriophage PBEC131 (EC340-M-11-12), 162 amino acids (protein)
chain: VSRNISNNGIKFTAAFEGFRGTAYRATPNEKYLTIGYGHYGPDVTPGKTITPGQGLLLLNRDMAKAVAAVDAAAHHSLTQAQFDAVCDLVYNAGAGVIAATTGTGKALRSGDIATLRAKLALFINQNGKPLLGLRRRTAGRLALFDGKPWQEAEAIGRAVKG
modifications: synthetic_EC340
notes: endolysin of E. coli bacteriophage PBEC131 (EC340-M-11-12), 162 amino acids

How the values were obtained:
E. coli [1] = settings: cited from earlier work
K. pneumoniae [2] = settings: K. pneumoniae CCARM 10143; cited from earlier work
[3] = system: Pseudomonas aeruginosa (ATCC 13388); assay: Killing activity of endolysin, in vitro test; format: cell-based; settings: 2 μM, 37° C., 2 hours, 20 mM Tris-Cl pH 7.5
Method: (§1) For this, endolysin EC340 at a concentration of 2 μM and each test bacterium were added to reaction buffer (20 mM Tris-Cl, pH 7.5) so that the final concentration was to be 200 μl, and were left at 37° C. for 2 hours. After 2 hours, the number of colonies of Acinetobacter baumannii, Pseudomonas aeruginosa and Escherichia coli was confirmed, and the result was shown in FIG. 3.

[4] = system: Acinetobacter baumannii (ATCC19606); assay: Killing activity of endolysin, in vitro test; format: cell-based; settings: 2 μM, 37° C., 2 hours, 20 mM Tris-Cl pH 7.5
Method: as §1

E. coli [5] = assay: Antibacterial activity analysis (colony count after 2 hours in buffer); format: cell-based, Escherichia coli; settings: 2 μM
Method: (§2) The antibacterial activity of the purified protein was tested for E. coli and various K. pneumoniae strains. The bacterium were grown to an exponential phase (OD600=0.5) and harvested by centrifugation at 12,000×g for 3 minutes. Then, the pellets were washed with reaction buffer solution (20 mM Tris-HCl, pH 7.5) and diluted to about 10^6 cells/ml in the buffer solution. Then, 100 μl bacterial suspension was mixed with the purified endolysin of 100 μl in the reaction buffer solution and incubated at 37° C. for 2 hours. Finally, the mixture was diluted with PBS and loaded on an LB plate. After culturing at 37° C. overnight, the bacterial colonies were counted. All the analysis was performed in triplicate.
(§3) The same reaction was performed for the selected subject bacterium in 20 mM HEPES-NaOH, 150 mM NaCl [pH 7.4], and the unique antibacterial activity of Tris and dependence of endolysin for turgor pressure were excluded (FIG. 10a and FIG. 10b). […] The bacterial cells grown geometrically were cultured with 2 μM endolysin in low tonicity buffers (20 mM Tris-HCl, pH 7.5 or 20 mM HEPES, pH 7.5) or high tonicity buffers (buffer solution comprising 150 mM NaCl) at 37° C. for 2 hours. The cells treated with storage buffer solution (20 mM Tris-HCl, pH 7.5, 150 mM NaCl buffer solution (pH 7.5)) were used as a negative control group. The dotted line represents the detection limit (1 Log CFU/ml).
as §1

K. pneumoniae [6] = assay: as above; format: cell-based, Klebsiella pneumoniae; settings: 2 μM
Method: as §2, §3

E. coli [7] = assay: Checkerboard assay (MIC in combination, FIC index); format: cell-based, Escherichia coli; settings: E. coli ATCC8738
Method: LNT113 was vertically diluted 2-fold and the antibiotic was serially diluted horizontally in a 96-well plate. Bacterium at a concentration of 10^6 CFU/ml were added to each well in a CAA medium. […] The fractional inhibitory concentration (FIC) for the LNT113 or antibiotic was calculated by dividing the MIC of two drugs by combining it with the MIC of each drug alone. […] The FICI was considered as a synergistic effect ≤0.5, an additive >0.5 ˜≤1, an independent effect (indifference)>1.0 ˜≤2, and an antagonistic effect (antagonism) >2.

E. coli ATCC 8739 = assay: Zymogram assay; format: biochemical, Escherichia coli; settings: 3 μg purified endolysin, gel with autoclaved E. coli ATCC 8739
Method: Zymogram assay was performed with some modifications of the previously described method (Khakhum et al., 2016). In other words, an overnight culture of E. coli ATCC 8739 was harvested, washed with phosphate buffered solution (PBS) once, and then harvested by centrifugation at 4,000×g for 15 minutes. Then, the pellets were resuspended in 3 ml of deionized water. The cells were autoclaved and added to a 15% SDS-PAGE gel prior to polymerization. Then, 3 μg of purified endolysin (EC340, mtEC340 or LNT113) was mixed with 2× sample buffer (0.5 mM Tris-HCl, pH 6.8, 20% glycerol, 0.2% bromophenol blue) and loaded on SDS-PAGE. After electrophoresis, the gel was washed with deionized water for 1 hour and incubated in reaction buffer (1% Triton X-100, 20 mM Tris-HCl, pH 7.5) at a room temperature.

Molecule | MIC of antibiotics (E. coli [1]; E. coli CCARM 1A746) [µg/mL] | MIC of antibiotics (E. coli [1]; E. coli CCARM 1B684) [µg/mL] | MIC of antibiotics (K. pneumoniae [2]) [µg/mL] | further results
CO/N=C(\C(=O)N[C@@H]1C(=O)N2C(C(=O)O)=C(COC(C)=O)CS[C@H]12)c1csc(N)n1 [Cefotaxime] | 128 | 0.25 | 16 | 
CC(=O)OCC1=C(C(=O)O)N2C(=O)[C@@H](NC(=O)Cc3cccs3)[C@H]2SC1 [Cephalothin] | ≥128 | 64 | ≥128 | 
O=C(O)c1cn(C2CC2)c2cc(N3CCNCC3)c(F)cc2c1=O [Ciprofloxacin] | 128 | 64 | ≤0.25 | 
Gentamicin | ≥128 | 128 | ≥128 | 
Trimethoprim-sulfamethoxazole | ≥128 |  | ≥32 | 
B1 |  |  |  | killing activity [3]: had the killing activity; killing activity [4]: had the killing activity; antibacterial activity (number of bacterium) (E. coli [5]; E. coli ATCC8739, ATCC25922, CCARM1A746, CCARM1B684, 2 hours, Tris-HCl pH 7.5): excellent antibacterial activity; effect of adding NaCl on antibacterial activity (E. coli [5]; E. coli ATCC 8739, Tris or Hepes buffer with 150 mM NaCl): almost inactivated; killing activity (E. coli [5]; Escherichia coli (ATCC 8739), 37° C., 2 hours, 20 mM Tris-Cl pH 7.5): had the killing activity; antibacterial activity (number of bacterium) (K. pneumoniae [6]; K. pneumoniae ATCC700603, KCTC2208, CCARM10143, F85, 2 hours, Tris-HCl pH 7.5): excellent antibacterial activity; effect of adding NaCl on antibacterial activity (K. pneumoniae [6]; K. pneumoniae KCTC 2208, Tris or Hepes buffer with 150 mM NaCl): almost inactivated; MIC of endolysin combined with colistin: EC340 (E. coli [7]; Colistin 0): >128 µg/mL; MIC of endolysin combined with colistin: EC340 (E. coli [7]; Colistin 0.0625): 32 µg/mL; MIC of endolysin combined with colistin: EC340 (E. coli [7]; Colistin 0.125): 16 µg/mL; MIC of endolysin combined with colistin: EC340 (E. coli [7]; Colistin 0.25): <2 µg/mL; enzymatic activity in zymogram (E. coli ATCC 8739): enzymatic activity was observed
